Laboratory results: patent US4822791A, “Pharmaceutical compositions of-2,2-1,1-[bis-2,2'-(3,1-benzoxazin-4-one)9 ethylenes” (priority 1984, dated 1989)
Read-outs that look alike come from different tables or passages of the source. Blank lines part the entries; values can stand above or below the compound they belong to.

What was measured:
hyaluronidase = biological target: T1, hyaluronidase (Bos taurus, UniProt Q2YDK3); experiment: Anti-hyaluronidase activity (modified Morgan-Elson method); type: biochemical; settings: for IC50: hyaluronidase 340NF unit/ml, activating agent Compound 48/80 or CaCl2; for IC20: value marked (IC20), read-out: IC20 (printed in IC50 (mM) column); for IC10: value marked (IC10), read-out: IC10 (printed in IC50 (mM) column)
T1 sequence (Q2YDK3 36-553): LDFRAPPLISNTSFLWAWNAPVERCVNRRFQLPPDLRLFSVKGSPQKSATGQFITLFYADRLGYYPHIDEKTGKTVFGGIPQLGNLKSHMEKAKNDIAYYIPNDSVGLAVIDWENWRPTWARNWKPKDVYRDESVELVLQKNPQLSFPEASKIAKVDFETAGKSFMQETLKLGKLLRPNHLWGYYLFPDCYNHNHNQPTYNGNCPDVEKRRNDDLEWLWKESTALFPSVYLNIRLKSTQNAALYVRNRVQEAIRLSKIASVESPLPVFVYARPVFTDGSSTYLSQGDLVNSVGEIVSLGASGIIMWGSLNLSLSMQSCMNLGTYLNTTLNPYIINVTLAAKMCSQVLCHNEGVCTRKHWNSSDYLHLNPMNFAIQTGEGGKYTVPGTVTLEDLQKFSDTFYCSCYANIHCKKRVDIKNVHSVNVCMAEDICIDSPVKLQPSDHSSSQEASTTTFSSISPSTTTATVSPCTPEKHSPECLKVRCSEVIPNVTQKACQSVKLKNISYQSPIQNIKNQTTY

[1] = system: passive cutaneous anaphylaxis (PCA); experiment: Anti-passive cutaneous anaphylaxis (PCA) activity in rats (Test Example 2); type: in vivo, Wistar strain rats; settings: Rattus norvegicus, N 10; for inhibition in vivo at 10 mg/kg: 10 mg/kg PO; for inhibition in vivo at 50 mg/kg: 50 mg/kg PO; for inhibition in vivo at 100 mg/kg: 100 mg/kg PO
Experimental: Wistar strain rats were sensitized with ovalbumin using aluminium hydroxide gel and Bordetella Pertussis vaccine as adjuvants. Dilutions of antiserum (16-fold and 32-fold) obtained by collecting blood samples 14 days later were administered subcutaneously in the dorsal skin of the rats of the same strain at the rate of 0.1 ml per spot, and the rats were grown for 48 hours. One hour after peroral administration of the sample solution, a mixture of antigen ovalbumin and Evans-blue dye was administered to the tail venous of the animal according to the ordinary procedure. Thirty minutes later, the animals were sacrificed by exsanguination, and the areas of blue spots (long diameter×short diameter) eliciting on the portion of the antiserum injection at the dorsal skin were measured to obtain the rate of inhibition based on the average value shown by the control animals.

[2] = system: experimental ulcer model (Shay); experiment: Anti-ulcer activity in experimental ulcer model (Shay); type: in vivo, Wistar strain male rats
Experimental: Using 5 eight-week old Wistar strain male rats of 1 group, the rats were previously fasted for […]. The compound of an amount proportionate to the body weight based on the body weight after fasting was administered intraduodenally or intraperitoneally.
Each test compound was evenly suspended or dissolved in an aqueous solution of 0.5% CMC ccntaining 0.1% Tween 80, and administered at the rate of 0.5 ml per 100 g of body weight of the animal. To the controls, only the solvent was administered.
Test was carried out in accordance with Shay's method. After 48 hours' fasting, 5 animals per group were subjected to laparotomy under ether anesthesia, the tract between pylorus of stomach and duodenum was ligated, and the solution of the compound was administered intraduodenally (id) or intraperitoneally (ip), followed by suturing the laparotomy part. Eight hours after administration of the compound liquid, each animal was sacrificed by ether anesthesia and stomach was removed. Then, evaluation on the ulcer condition on the inner surface of stomach, and determination of the amount of gastric juice, of acidity by alkali titration, and of pepsin titer based on substrate of hemoglovin were made on the stored gastric juice. With regard to the acidity, gastric juice amount, and pepsin titer, the results were shown in inhibition rate (%) based on the average value of the control groups.

[3] = read-out: Average Inhibition Rate (%) Antiserum Dilution: × 16
[4] = read-out: Average Inhibition Rate (%) Antiserum Dilution: × 32

Structure (SMILES): O=C(Nc1ccccc1C(=O)O)C(=Cc1ccccc1)C(=O)Nc1ccccc1C(=O)O
IC50 (hyaluronidase; read-out: IC50): 0.035 mM

Structure (SMILES): O=C(CC(=O)Nc1ccccc1C(=O)O)Nc1ccccc1C(=O)O [Compound 01, 2,2'-[(1,3-dioxo-1.3-propanediyl)diimino]bisbenzoic acid]
IC50 (hyaluronidase; read-out: IC50): 0.077 mM

Structure (SMILES): O=C(CC(=O)Nc1cccc(C(=O)O)c1)Nc1cccc(C(=O)O)c1 [Compound 02]
IC20 (hyaluronidase): 0.9 mM

Structure (SMILES): CCOC(=O)c1ccccc1NC(=O)CC(=O)Nc1ccccc1C(=O)OCC [Compound 04]
IC10 (hyaluronidase): 0.015 mM

Structure (SMILES): O=C(CC(=O)Nc1cc(Cl)ccc1C(=O)O)Nc1cc(Cl)ccc1C(=O)O [Compound 05]
IC10 (hyaluronidase): 1.32 mM

Structure (SMILES): O=C(CC(=O)Nc1cc([N+](=O)[O-])ccc1C(=O)O)Nc1cc([N+](=O)[O-])ccc1C(=O)O [Compound 06, 4,4'-dinitro-2,2'-[(1,3-dioxo-1,3-propanediyl)diimino]bisbenzoic acid]
inhibition in vivo at 10 mg/kg [1, 3]: 8.5%
inhibition in vivo at 10 mg/kg [1, 4]: 11.2%
inhibition in vivo at 50 mg/kg [1, 3]: 14.9%
inhibition in vivo at 50 mg/kg [1, 4]: 13.3%
inhibition in vivo at 100 mg/kg [1, 3]: 18.6%
inhibition in vivo at 100 mg/kg [1, 4]: 18.8%
IC50 (hyaluronidase; IC50 (mM)): 0.013 mM

Structure (SMILES): Cc1ccc(NC(=O)CC(=O)Nc2ccc(C)cc2C(=O)O)c(C(=O)O)c1 [Compound 07]
IC10 (hyaluronidase): 0.66 mM
IC20 (hyaluronidase): 0.72 mM

Structure (SMILES): COc1ccc(C(=O)O)cc1NC(=O)CC(=O)Nc1cc(C(=O)O)ccc1OC [Compound 08]
IC10 (hyaluronidase): 0.22 mM

Structure (SMILES): O=C(CC(=O)Nc1cc(Cl)ccc1C(=O)O)Nc1ccccc1C(=O)O [Compound 09, 4-chloro-2,2'-[(1,3-dioxo-1,3propanediyl)diimino]bisbenzoic acid]
IC50 (hyaluronidase; read-out: IC50): 0.134 mM

Structure (SMILES): O=C(Nc1cccc(C(=O)O)c1)C(=Cc1ccccc1)C(=O)Nc1cccc(C(=O)O)c1 [Compound 12]
IC50 (hyaluronidase; read-out: IC50): 0.065 mM

Structure (SMILES): O=C(Nc1ccc(C(=O)O)cc1)C(=Cc1ccccc1)C(=O)Nc1ccc(C(=O)O)cc1 [Compound 13]
IC50 (hyaluronidase; read-out: IC50): 0.055 mM

Structure (SMILES): O=C(Nc1cc(Cl)ccc1C(=O)O)C(=Cc1ccccc1)C(=O)Nc1cc(Cl)ccc1C(=O)O [Compound 15]
IC50 (hyaluronidase; read-out: IC50): 0.055 mM

Structure (SMILES): O=C(Nc1cc([N+](=O)[O-])ccc1C(=O)O)C(=Cc1ccccc1)C(=O)Nc1cc([N+](=O)[O-])ccc1C(=O)O [Compound 16]
inhibition in vivo at 50 mg/kg [1, 3]: 3.2%
inhibition in vivo at 50 mg/kg [1, 4]: 9%
inhibition in vivo at 100 mg/kg [1, 3]: 11.8%
inhibition in vivo at 100 mg/kg [1, 4]: 12.2%
IC50 (hyaluronidase; IC50 (mM)): 0.01 mM

Structure (SMILES): Cc1ccc(NC(=O)C(=Cc2ccccc2)C(=O)Nc2ccc(C)cc2C(=O)O)c(C(=O)O)c1 [Compound 17]
IC50 (hyaluronidase; read-out: IC50): 0.142 mM

Structure (SMILES): COc1ccc(C(=O)O)cc1NC(=O)C(=Cc1ccccc1)C(=O)Nc1cc(C(=O)O)ccc1OC [Compound 18]
IC10 (hyaluronidase): 0.29 mM

Structure (SMILES): CC(C)c1ccc(C=C(C(=O)Nc2ccccc2C(=O)O)C(=O)Nc2ccccc2C(=O)O)cc1 [Compound 27]
IC50 (hyaluronidase; read-out: IC50): 0.03 mM

Structure (SMILES): CN(C)c1ccc(C=C(C(=O)Nc2ccccc2C(=O)O)C(=O)Nc2ccccc2C(=O)O)cc1 [Compound 28]
IC50 (hyaluronidase; read-out: IC50): 0.11 mM

Structure (SMILES): O=C(Nc1ccccc1C(=O)O)C(=Cc1ccco1)C(=O)Nc1ccccc1C(=O)O [Compound 39]
IC50 (hyaluronidase; read-out: IC50): 0.04 mM

Structure (SMILES): O=C(Nc1ccccc1C(=O)O)C(=Cc1cccs1)C(=O)Nc1ccccc1C(=O)O [Compound 40, 2,2'-[[1,3-dioxo-2-{2-thienyl)methylene-1,3-propanediyl]diimino]bisbenzoicacid]
IC50 (hyaluronidase; read-out: IC50): 0.035 mM

Structure (SMILES): O=C(Nc1ccccc1C(=O)O)C(=Cc1ccsc1)C(=O)Nc1ccccc1C(=O)O [Compound 41, 2,2'-[(1,3-dioxo-2-(3-thienyl)methylene-1,3-propanediyl)diimino]bisbenzoicacid]
IC50 (hyaluronidase; read-out: IC50): 0.06 mM

Structure (SMILES): Cn1cccc1C=C(C(=O)Nc1ccccc1C(=O)O)C(=O)Nc1ccccc1C(=O)O [Compound 43, 2,2'-[(1,3-dioxo-2-(1-methyl-1H-pyrrol-2-yl)methylene-1,3-propanediyl)diimino]bisbenzoic acid]
IC50 (hyaluronidase; read-out: IC50): 0.04 mM

Structure (SMILES): O=C(Nc1ccccc1C(=O)O)C(=Cc1cccnc1)C(=O)Nc1ccccc1C(=O)O [Compound 44]
IC50 (hyaluronidase; read-out: IC50): 0.073 mM

Structure (SMILES): O=C(Nc1ccccc1C(=O)O)C(=Cc1ccccc1)C(=O)Nc1cc(Cl)ccc1C(=O)O [Compound 46, 4-chloro-2,2'-[(1,3-dioxo-2-phenylmethylene-1,3-propanediyl)diimimo]bisbenzoic acid]
IC50 (hyaluronidase; read-out: IC50): 0.03 mM

Structure (SMILES): O=C(O)c1ccccc1NC(=O)C(Cc1ccccc1)C(=O)Nc1ccccc1C(=O)O [Compound 50, 2,2'-[(1,3-dioxo-2-phenylmethyl-1,3-propanediyl)diimino]bisbenzoic acid]
IC50 (hyaluronidase; read-out: IC50): 0.05 mM

Structure (SMILES): CNC(=C[N+](=O)[O-])NCCSCc1ccc(CN(C)C)o1 [Ranitidine, reference compound]
Inhibition % Gastric Acidity ([2]; id 30 mg/kg): 63.0%
Inhibition % secretion amount of gastric juice ([2]; id 30 mg/kg): 25.2%
Inhibition % total pepsin titer ([2]; id 30 mg/kg): 20.6%

More lines, main results first:

IC50 (hyaluronidase; read-out: IC50): 0.013 mM
Structure (SMILES): COc1ccc(C=C(C(=O)Nc2ccccc2C(=O)O)C(=O)Nc2ccccc2C(=O)O)cc1 [Compound 19]

IC50 (hyaluronidase; read-out: IC50): 0.03 mM
Structure (SMILES): COc1cc(C=C(C(=O)Nc2ccccc2C(=O)O)C(=O)Nc2ccccc2C(=O)O)cc(OC)c1OC [Compound 23]
Inhibition % Gastric Acidity ([2]; id 100 mg/kg): 32.5%
Inhibition % secretion amount of gastric juice ([2]; id 100 mg/kg): 8.5%
Inhibition % total pepsin titer ([2]; id 100 mg/kg): 31.1%
Inhibition % Gastric Acidity ([2]; id 200 mg/kg): 40.2%
Inhibition % secretion amount of gastric juice ([2]; id 200 mg/kg): 11.2%
Inhibition % total pepsin titer ([2]; id 200 mg/kg): 41.2%

IC50 (hyaluronidase; read-out: IC50): 0.013 mM
Structure (SMILES): O=C(Nc1ccccc1C(=O)O)C(=Cc1ccc2c(c1)OCO2)C(=O)Nc1ccccc1C(=O)O [Compound 25]
Inhibition % Gastric Acidity ([2]; id 100 mg/kg): 45.2%
Inhibition % secretion amount of gastric juice ([2]; id 100 mg/kg): 25.5%
Inhibition % total pepsin titer ([2]; id 100 mg/kg): 32.1%
Inhibition % Gastric Acidity ([2]; id 200 mg/kg): 80.0%
Inhibition % secretion amount of gastric juice ([2]; id 200 mg/kg): 50.7%
Inhibition % total pepsin titer ([2]; id 200 mg/kg): 40.5%
Inhibition % Gastric Acidity ([2]; ip 50 mg/kg): 67.4%
Inhibition % secretion amount of gastric juice ([2]; ip 50 mg/kg): 53.4%
Inhibition % total pepsin titer ([2]; ip 50 mg/kg): 82.2%

IC50 (hyaluronidase; read-out: IC50): 0.025 mM
Structure (SMILES): O=C(Nc1ccccc1C(=O)O)C(=Cc1cccc(Cl)c1)C(=O)Nc1ccccc1C(=O)O [Compound 31]

IC50 (hyaluronidase; read-out: IC50): 0.025 mM
Structure (SMILES): O=C(Nc1ccccc1C(=O)O)C(=Cc1ccccc1Cl)C(=O)Nc1ccccc1C(=O)O [Compound 32]

IC50 (hyaluronidase; read-out: IC50): 0.015 mM
Structure (SMILES): O=C(Nc1ccccc1C(=O)O)C(=Cc1ccc(Br)cc1)C(=O)Nc1ccccc1C(=O)O [Compound 33]

IC50 (hyaluronidase; read-out: IC50): 0.025 mM
Structure (SMILES): O=C(Nc1ccccc1C(=O)O)C(=Cc1ccc(F)cc1)C(=O)Nc1ccccc1C(=O)O [Compound 34]

IC50 (hyaluronidase; read-out: IC50): 0.015 mM
Structure (SMILES): O=C(Nc1ccccc1C(=O)O)C(=Cc1ccc(C(F)(F)F)cc1)C(=O)Nc1ccccc1C(=O)O [Compound 35]

IC50 (hyaluronidase; read-out: IC50): 0.025 mM
Structure (SMILES): O=C(Nc1ccccc1C(=O)O)C(=Cc1ccc([N+](=O)[O-])cc1)C(=O)Nc1ccccc1C(=O)O [Compound 36, 2,2'-[[1,3-dioxo-2-(4-nitro)phenylmethylene-1,3-propanediyl]diimino]bisbenzoic acid]

IC50 (hyaluronidase; read-out: IC50): 0.017 mM
Structure (SMILES): N#Cc1ccc(C=C(C(=O)Nc2ccccc2C(=O)O)C(=O)Nc2ccccc2C(=O)O)cc1 [Compound 37]

IC50 (hyaluronidase; read-out: IC50): 0.023 mM
Structure (SMILES): O=C(Nc1ccccc1C(=O)O)C(=Cc1cccc2ccccc12)C(=O)Nc1ccccc1C(=O)O [Compound 38]

IC50 (hyaluronidase; read-out: IC50): 0.025 mM
Structure (SMILES): O=C(Nc1ccccc1C(=O)O)C(=Cc1ccc[nH]1)C(=O)Nc1ccccc1C(=O)O [Compound 42]

IC50 (hyaluronidase; read-out: IC50): 0.01 mM
Structure (SMILES): Cn1cc(C=C(C(=O)Nc2ccccc2C(=O)O)C(=O)Nc2ccccc2C(=O)O)c2ccccc21 [Compound 45]
